# Patent publication US20200080053A1, “USE OF PEPTIDE COMPOUNDS FOR PROMOTING SURVIVAL, GROWTH AND CELL DIFFERENTIATION” (Axoltis Pharma, priority 2016, published 2020)
# “Also recorded” adds a separate entry of the source.
# Experiments:
# [1] = tested on: 129S v/J embryonic stem cells (ESCs); assay: Early differentiation of ESCs on gelatin without LIF and serum, nestin/MAP2 immunocytochemistry; assay type: cell-based
# Procedure: 129S v/J embryonic stem cells (ESCs) were seeded at a concentration of 0.7×10^6 cells in 35 mm diameter Petri dishes covered with a gelatin substrate.
# The culture medium used was the Glasgow's minimal essential medium (G-MEM) supplemented with N2 supplement.
# To enable differentiation of ESCs into neuroepithelial progenitors, the culture medium was deprived of LIF (Leukemia Inhibitory factor) because LIF is a key factor of the self-renewal of ESCs.
# The various tests were carried out in absence of serum because serum limits the possibility to specifically orientate the differentiation and it could hide, or at least reduce, the effects of the peptide compound of the invention.
# ESCs were grown in the culture medium as defined above with addition of 0.5 mg/ml NX210 (SEQ ID NO: 6) at day 1, 3 and 5.
# Then, cultures were fixed with 4% paraformaldehyde after 7 days of culture.
# To analyze the differentiation of ESCs into neuroepithelial progenitors and into differentiated neurons, the various cell types were visualized by immunocytochemistry: • using a primary anti-nestin antibody (nestin=intermediate filament protein), specific of neuroepithelial progenitors, and • using a primary anti-MAP2 antibody (MAP2=microtubule associated protein 2), specific of dendrites, and thus specific of differentiated neurons.
# The total number of cells was measured by labelling nuclei using bisbenzimide/Hoechst 33342, a fluorescent dye with an affinity for DNA that is commonly used to color nuclei in blue.
# [2] = tested on: human mesenchymal stem cells (hMSC); assay: Cell proliferation of hMSCs depending on the culture conditions; assay type: cell-based; conditions: whatever the conditions / FBS concentration (2% or 10% FBS)
# From the text: Adult human bone marrow mononuclear cells Ficoll-extracted from two donors were obtained from Lonza. Cells were passaged once a week. The human mesenchymal stem cells (hMSC) were selected by plastic adherence and expanded by plating 50 000 cells/cm^2 in Modified Eagle Medium Alpha (MEMalpha, MacoPharma) supplemented with 10% Fetal Bovine Serum (FBS, PAA Laboratoires) and 0.1% Penicilline/Streptomycine (P/S, Lonza). The culture medium was changed after 3 days and then every day. After 2 to 5 weeks of culture at 37° C. in a humid environment and under 5% CO2, hMSC were harvested by trypsinization. The phenotype was confirmed by FACS analysis (BD Bioscience, BD LSR II) with CD73, CD90 and CD105 (positive), as well as CD34 and CD45 (negative) (Table 1).
# To investigate the neural differentiation capacity of the peptides, 25 cm^2 flasks and 12-wells culture plates were coated with sterile aqueous solutions of either NX210 or NS640 at a concentration of 80 μg/cm^2. Coatings were carried out at 37° C. and 5% CO2 over-night prior to cell plating.
# On Day 0 (D0), hMSC were seeded at a concentration of 3,000 cells/cm^2 in pre-coated 25 cm^2 flasks or 12-well culture plates in complete medium and culture was placed at 37° C. in a humid environment and under 5% CO2. After 24h, medium was changed and replaced by different combinations of media containing either: MEMalpha—bFGF 12.5 ng/mL—FBS 2%—P/S 0.1%; MEMalpha—bFGF 12.5 ng/mL—FBS 10%—P/S 0.1%; MEMalpha—FBS 2%—P/S 0.1% (control condition); MEMalpha—FBS 10%—P/S 0.1% (control condition). The cells were placed at 37° C. in a humid environment and under 5% CO2, and medium was changed twice a week. […] thus was changed with: MEMalpha—ATRA […]—FBS 2%—P/S 0.1%; MEMalpha—ATRA 20 μM—FBS 10%—P/S 0.1%; MEMalpha—FBS 2%—P/S 0.1% (control condition); MEMalpha—FBS 10%—P/S 0.1% (control condition). The cells were placed at 37° C. in a humid environment and under 5% CO2. Medium was changed twice a week. On Day 15 (D15), cells were harvested by trypsinization for mRNA extraction or fixed immunocytochemical analysis.
substance,measurement,setting,value
W-S-G-W-S-S-C-S-R-S-C-G (WSGWSSCSRSCG) [NX210],population of ESCs expressing the nestin protein,"[1]; 0.5 mg/ml NX210, 7 days of culture on gelatin, compared to culture in the absence of NX210",reduced; also recorded: few Nestin+cells
same,cells expressing the MAP2 protein (differentiated neurons),"[1]; 0.5 mg/ml NX210, 7 days of culture, no MAP2 cells in the absence of NX210",some cells expressing the MAP2 protein
same,orientation of ESCs to the neuronal differentiation pathway,"[1]; 0.5 mg/ml NX210, in terms of kinetics",induces a preferential orientation of ESCs to the neuronal differentiation pathway
same,MAP2+ cells in ESCs (FIG. 2),"[1]; after 5 days in the presence of 0.5 mg/ml NX210, compared to control culture",only observed in presence of NX210
same,effect on cell proliferation (number of MSCs),[2],no effect
